Assay results: patent US9919058B2, “Polyketal particles including a CpG oligodeoxynucleotide for the treatment of lung cancer” (THE UNITED STATES OF AMERICA, as represented by the …, priority 2014, dated 2018)
Like-named read-outs stand apart in the source and are kept apart here.

Assays:
[1] = tested on: Rat; details: in vivo, po; cited from earlier work
[2] = tested on: large established tumor; details: 3M-052 co-delivered with CpG ODN into the tumor site; tumor size over 500 mm(3); cited from earlier work
[3] = tested on: Lewis lung carcinoma (LLC1) cells
Protocol: Treatment Protocols and Tumor Cell Implantation: C57BL/6, TLR9 KO and Rag1 KO mice were obtained from the National Cancer Institute (Frederick, Md.) and studied at 5-6 wk of age. […] On the day of inoculation, cultured cells were trypsinized, washed and suspended in 0.9% saline.
One week later, free ODN or ODN-NP were administered either systemically (i.p.) or locally (i.t.). Instillation was achieved via orotracheal intubation using a 20 gauge 1″ catheter (TERUMO, Somerset, N.J.) under anesthesia. Survival curves were generated from 4-6 mice per group and all results derived by combining data from 2-4 independent experiments. All animals were monitored 3×/wk and moribund mice euthanized as per Institutional Animal Care and Use Committee protocol.
Statistical Analysis: Statistical analyses were performed using MedCalc, version 13.0 (MedCalc Software, Mariakerke, Belgium). Differences in survival were determined using the log rank test of Kaplan-Meier. Differences between groups were assessed using a one-way ANOVA followed by Student-Newman-Keuls post-hoc test. […] All values are expressed as mean±SE.

[4] = tested on: Spleen cells from WT or TLR9 KO mice; assay: In vitro stimulation of spleen cells (CCK-8 proliferation; IL-6/IL-12 ELISA); type: cell-based
Protocol: FIGS. 2A-2C. In vitro activity of CpG-NP (aggregates provided microprticles “MP’). Spleen cells from WT or TLR9 KO mice were cultured with 1 μM of free or NP adsorbed CpG ODN or 1 μg/mL of R837 (TLR7 ligand). 2A) Cell proliferation after 72 hr. 2B, 2C) IL-12 and IL-6 production after 24 hr.
In Vitro Cell Proliferation Assay: Single spleen cell suspensions were prepared. 5×10^4 cells/well were cultured in 96-well flat bottomed microtiter plates in complete RPMI 1640 medium supplemented with 10% fetal calf serum, 100 U/mL penicillin, […], […], 1.0 mmol/L sodium pyruvate, NEAA, and 0.0035% 2-ME. The cells were stimulated free ODN, ODN-NP, or R837 (TLR7 agonist) for 72 hr. Cell proliferation was assessed using the CCK-8 assay as per manufacturer's recommendation (Dojindo molecular technologies, Inc. Rockville, Md.).
ELISA: Cytokine levels in BAL, serum, and culture supernatants were measured by ELISA as previously described (Klinman et al., PNAS 1996; 93:2879-2883). Briefly, paired IL-6 and IL-12-specific mAbs were purchased from BD Pharmingen. Ninety-six-well Immulon H2B plates (Thermo LabSystems, Beverly, Mass.) were coated with capture cytokine-specific Abs and then blocked with PBS/1% BSA. Samples were added and bound cytokine detected by the addition of biotin-labeled secondary Ab, followed by phosphatase-conjugated avidin and a phosphatase-specific colorimetric substrate. Standard curves were generated using recombinant cytokines purchased from R&D Systems (Minneapolis, Minn.).

[5] = tested on: Immune Cells; assay: BAL cellularity and IL-12 after i.t. delivery to normal mice; type: in vivo; details: 50 μg i.t., BAL 2 days later
Protocol: FIGS. 4A-4B. Activity of CpG-NP (aggregates provided microprticles “MP’) in vivo. 50 μg of CpG ODN (free or adsorbed onto NP) was administered i.t. to normal mice. BAL was collected and analyzed for (4A) cellularity and (4B) IL-12 levels 2 days later.
Tissue Collection and Evaluation of Tumor Development: Bronchoalveolar lavage (BAL) fluid was obtained by tracheal cannulation of anesthetized mice. Cell differentials were performed on cytocentrifuged BAL preparations after fixation and staining with Diff-Quick (Dade Behring, Newark, Del.).
IL-12 levels in BAL and serum were determined by ELISA. Lungs were inflated and fixed by instilling 1 mL of 10% neutral-buffered formalin or periodate lysine paraformaldehyde (PLP) fixative (Wako Chemicals USA, Inc. Richmond, Va.) at 20 cm H2O. Fixed tissue was embedded in paraffin, sectioned, and stained with hematoxylin and eosin for histopathological assessment. Tumor area was evaluated in mid-line sections and quantified using Image J software ver.1.48 (National Institute of Health, Bethesda, Md.).
ELISA: Cytokine levels in BAL, serum, and culture supernatants were measured by ELISA as previously described (Klinman et al., PNAS 1996; 93:2879-2883). […] Samples were added and bound cytokine detected by the addition of biotin-labeled secondary Ab, followed by phosphatase-conjugated avidin and a phosphatase-specific colorimetric substrate. […]

[6] = mouse, in vivo
Protocol: Biodistribution of CpG ODN. LLC were implanted as described in FIG. 1. […] Tissue samples were stained to identify macrophages (red F4/80^+), DC (red CD205^+) or CpG (green) and analyzed by confocal microscopy.
Immunohistochemistry and Immunofluorescent Analysis: Tissue sections were deparaffinized with xylene and rehydrated with graded ethanol. Endogenous peroxidase activity was blocked by incubation with 0.3% H2O2 in methanol for 30 min followed by Protein Block (Dako, Carpinteria, Calif.). […] Isotype matched negative controls were included to insure specificity.
For immunohistochemistry, stained sections were incubated with HRP-conjugated anti-rat or rabbit IgG (simple stain mouse Max Po; Nichirei, Tokyo, Japan) plus 3-amino-9-ethyl carbazole (AEC) substrate for color development (Nichirei). The sections were counterstained with Mayer's hematoxylin (Dako) and images were obtained using an IX50 inverted microscope equipped with digital imaging system (Olympus, Center Valley, Pa.). […] Cell nuclei were visualized with DAPI (Vector). […] Fluorescent images were acquired with a laser-scanning confocal microscope (LSM 510; Zeiss, Thronwood, N.Y.), equipped with a 63x/1.4NA oil objective.

[7] = tested on: advanced NSCLC; details: cited from earlier work
[8] = tested on: Lewis lung cancer; details: CpG ODN in combination with chemotherapy; cited from earlier work
[9] = in vivo; cited from earlier work

For OCC1CCC(CO)CC1 (centres unmarked) [1,4-cyclohexanedimethanol], the LD50 [1] is given as 3,200 mg/kg.
In the case of CCCCCCCCCCCCCCCCCC(=O)NCCCCOn1c(CCCC)nc2c(N)nc3ccccc3c21 [3M-052, N-(4-{[4-amino-2-butyl-1H-imidazo[4,5-c]quinolin-1-yl]oxy}butyl) octadecanamide], the “effect on established tumor” value [2] is listed as “eliminated the large established tumor”.
With GCTAGACGTTAGCGT [CpG ODN] the median survival time ([3]; 50 μg i.t. weekly for one month from day 7, C57BL/6, untreated 22 days) was 38 days, the “HR (survival vs No Rx)” value ([3]; dose of ODN 10 μg) was 0.33 and the long term survival ([3]; dose of ODN 10 μg weekly for one month) was < 40%. For the same compound, the long term survival ([3]; dose of ODN 50 μg weekly for one month) was > 80%, the toxicity ([3]; dose of ODN 100 μg) was “evidence of toxicity (pulmonary inflammation and weight loss)” and the “HR (survival vs No Rx)” value ([3]; intra-tracheal (i.t.) delivery, 50 μg) was 0.28. For the same compound, the “tumors on re-challenge of survivors with LLC” value ([3]; survivors of therapy re-challenged) was “no tumors arose”, the “HR (survival vs No Rx)” value ([3]; systemic (i.p.) delivery) was 0.55 and the “effect on survival” value ([3]; systemic (i.p.) delivery) was “modest but statistically insignificant survival benefit”. For the same compound, the “response of cells from TLR9 KO mice” value ([4]; TLR9 KO spleen cells) was “failed to respond”, the “IL-6 and IL-12 secretion” value ([4]; WT spleen cells, 1 μM, 24 hr) was “induced WT cells to secrete IL-6 and IL-12” and the cell proliferation ([4]; WT spleen cells, 1 μM, 3 days (72 hr)) was “proliferate over 3 days”. For the same compound, the “relative effectiveness of free CpG vs CpG-NP” value ([4]; WT spleen cells, 24 hr vs 3 days of culture) was “more effective at the earlier time point”, the “pulmonary IL-12 levels” value [5] was “significant increase in pulmonary IL-12 levels” and the “rise in BAL cellularity vs saline” value ([5]; normal mice) was “≈ 25%”. The “clearance from the lungs” value [6] was “rapidly cleared from the lungs”, the localisation in lung [6] was “detected throughout the mucosal surface of the bronchial tree” and the “localisation/persistence in lung and tumor” value [6] was “little of this material remained in the bronchi or could be detected in the tumor”. For the same compound, the objective response rate ([7]; patients who received CpG ODN, chemotherapy alone 19-23%) was 28-30%, the “survival benefit in phase 3 trials” value ([7]; patients with NSCLC, phase 3) was “no survival benefit was observed” and the effect on survival [8] was “significantly prolonged survival”. The “mean t1/2” value [9] was “≈ 12 h” and the median tmax [9] was 2 h.
With “GCTAGAGCTTAGCGT [control ODN, reference compound]” the “effect on survival” value ([3]; i.t. delivery) was “no effect”.
